Series [1] has as its system CHO cells expressing human platelet receptors. The experiment in a line: Cell adhesion to immobilized vWF under flow. Format: cell-based, Chinese Hamster. As to conditions: for stable adhesion of vector-transfected 123 cells to vWF under flow / stable adhesion of PKG-expressing 123 cells (123PKG) to vWF under flow: FIG. 2C, sildenafil 5 μM; for stable adhesion of PKG-expressing 123 cells (123PKG) to vWF under flow: RGDS 4 mM, 8-bromo-cGMP not shown. How it is done: CHO cells expressing human platelet receptors were resuspended in modified Tyrode's buffer, pH 7.4, containing 1 mg/mi of bovine serum albumin (BSA) (see Ref. 46), and final cell count was 5×10^5/ml. […] Purified human vWF (10 μg/ml in 0.1 M NaHCO3, pH 8.3) was added to glass microcapillary tubes (inner diameter of 1.33 mm and a length of 7.2 cm), and incubated at 4° C. for 20 h. The vWF-coated microcapillary tubes then were incubated with 5% BSA. After washing, the cell suspension was aspirated through the tube by a syringe pump (Harvard Apparatus Inc.) at desired shear rates for 1.2 minutes and washed with modified Tyrode's buffer for additional 10 minutes at the same shear rates to remove transiently adherent cells. The experiments were continuously recorded on videotape using a video cassette recorder (model 9500, Sony). The number of stably adherent cell on immobilized vWF was counted on images obtained at 20 randomly selected positions in the vWF-coated tubes.
In FIGS. 2A and B, vWF-coated capillary tubes were perfused with equivalent numbers (5×10^5/ml) of CHO cells expressing recombinant GPLb-JX alone (1b9), integrin αIIbβ3 alone (2b3a), both GPIb-IX and integrin αIIbβ3 (123) or expressing GPJb-JX, integrin α^IIbβ3 and PKG Ia (123PKG) at a shear rates of 800 s^−1 (A) or 1500 s^−1 (B) for 1.2 minutes, and then perfused with the modified Tyrodes buffer for 10 minutes at the same shear rates to wash out transient adherent cells. The expenments were recorded in real time. Cells stably adherent to vWF-coated capillary tubes at 20 randomly selected locations were counted.
In FIG. 2C, vector-transfected 123 cells (123) or 123PKG cells also was perfused into vWF-coated glass capillary tubes as described in FIG. 2A in the absence or presence (+RGDS) of an integrin inhibitor RGDS peptide (4 mM) and in the absence (Control) or presence of cGMP-enhancing drug, sildenafil (5 μM). […] The experiments were repeated at least three times.

In series [2] the test system is platelets. Briefly: Ristocetin-induced vWF-dependent platelet aggregation in platelet-rich plasma. Format: cell-based, human. As to conditions: PRP; agent added with subthreshold ristocetin (1 mg/mm [sic]) (or botrocetin); FIGS. 3B, 6A. On the procedure:
(§1) Fresh blood from healthy volunteers was anticoagulated with 1/7 volume of ACD (2.5% trisodium citrate, 2% dextrose and 1.5% citric acid). Platelets were washed with CGS buffer (sodium chloride 0.12 M, trisodium citrate 0.0129 M and d-glucose 0.03 M, pH 6.5), resuspended in modified Tyrode's solution and allowed to incubate at 22° C. for 1 hours as previously described. In experiments using platelet-rich plasma (PRP), 1/10 volume of 3.8% trisodium citrate was used as anticoagulant. Platelet aggregation was measured using a turbidometric platelet aggregometer (Chrono-Log) at 37° C. vWF-dependent platelet aggregation was induced by addition of ristocetin or botrocetin to PRP. To differentiate CPIb-IX-mediated platelet agglutination from the second wave of integrin-dependent platelet aggregation, final concentrations of ristocetin were adjusted in each experiment to achieve a two-wave curve of aggregation. Washed platelets were used in platelet aggregation induced by a-thrombin (Enzyme Research Laboratories). To examine the effects of PKG, 100 μM of membrane permeable cGMP analogs, 8-bromo-cGMP or 8-dibutyl-cGMP (Calbiochem), or 1 μM sildenafil citrate (Pfizer) and added simultaneously with subthreshold concentrations of agonists. PKG inhibitors KT5823 (2 pM) and Rp-8PCPT-cGMP (0.2 mM) were preincubated with platelets at 37° C. for 5 minutes before addition of agonists.
In FIG. 3A, platelet rich-plasma (PRP) was preincubated at 37° C. for 5 mm with PKG inhibitors KT5823 (2 pM) or Rp-8pCPT-cGMP (0.2 μM). PRP was also incubated with DMSO (vehicle for KT5823), a PKA inhibitor, KT5720 (2 pM), or buffer (Control). The vWF modulator, ristocetin, was then added to induce vWF-GPIb-IX interaction. […] In FIG. 3B, a subthreshold concentration of ristocetin was added to PRP immediately followed by addition of 8-bromo-cGMP or buffer (Control). PRP also was preincubated with integrin inhibitor RGDS before adding ristocetin and 8-bromo-cGMP. In FIG. 3C, platelets were preincubated with or without PKG inhibitor KT5823, then allowed to spread on vWF-coated glass chamber slides. Platelets were stained with an anti-GPIb antibody, and fluorescein-labeled secondary antibody. The slides were imaged under a confocal microscope (magnification =630×).
(§2) In FIG. 6A, increasing concentrations of sildenafil or control 0.15 M NaCl solution were added to platelet-rich plasma followed by a subthreshold concentration of ristocetin. Platelet aggregation was recorded using a platelet aggregometer. In FIG. 6B, sildenafil or control buffer was added to washed platelets followed by addition of subthreshold doses of thrombin to induce platelet aggregation. It was noted that platelet aggregation occurs in the presence of sildenafil. The figure includes the representative results of at least three experiments.
(§3) In FIG. 7A, PRP was preincubated with 0.1 mM 8-bromo-cGMP for increasing lengths of time at 37° C. as indicated. The vWF modulator, ristocetin (1.25 mg/ml), then was added to induce platelet aggregation in a turbidometric platelet aggregometer. In FIG. 7B, PRP was preincubated with a high concentration of 8-bromo-cGMP (1 mM) for 5 minutes. Ristocetin then was added to induce platelet aggregation. In FIGS. 7C and 7D, washed platelets in modified Tyrode's solution were preincubated with 1 mM 8-bromo-cGMP (C), or various concentrations of 8-pCPT-cGMP (D) at 37° C. for 5 minutes. Thrombin (0.05 u/ml) then was added to induce platelet aggregation.

Series [3] concerns platelets. Briefly: Low-dose α-thrombin-induced aggregation of washed platelets. Format: cell-based, human. Particulars: washed platelets; thrombin 0.02 units/ml; FIGS. 5B, 6B. On the procedure: as §1
In FIG. 5A, washed platelets were preincubated with 40 pg/mi anti-GPIba monoclonal antibody SZ2, integrin inhibitor RGDS, or inhibitors of PKG, KT5823 (2 μM) or Rp-8pCPT-cGMP (0.2 mM) (Calbiochem), for 5 min. Platelets also were preincubated with DMSO (vehicle for KT5823), KT5720 or buffer (Control) as controls. α-Thrombin (0.05 units/mi) then was added to induce platelet aggregation. Nonspecific JgG and RGES peptides also were examined as additional controls, but had no effect (not shown). In FIG. 5B, a subthreshold dose of thrombin was added to platelets immediately followed by addition of PKG activator 8-bromo-cGMP or buffer (Control). Shown in the figure are the representative results of at least three experiments.
as §2, §3

The test system of series [4] is platelets. Briefly: Platelet aggregation/activation in vitro with sildenafil by itself. Format: cell-based, human.
The test system of series [5] is platelets. Particulars: agonists ADP, collagen, A23 187, U46619, platelet activating factor; Ref. 38; cited from earlier work.
The conditions of series [6]: clinical reports, Refs. 39-42; cited from earlier work.
Setting [7] is: identical flow conditions, not shown.

Structures are written as SMILES. “Also recorded” adds a separate entry of the source.

Take `CCCc1nn(C)c2c(=O)[nH]c(-c3cc(S(=O)(=O)N4CCN(C)CC4)ccc3OCC)nc12` [sildenafil]: in series [1], the “stable adhesion of vector-transfected 123 cells to vWF under flow” value was “enhancing effects” and the “stable adhesion of PKG-expressing 123 cells (123PKG) to vWF under flow” value is given as “enhanced”. In addition, in series [1] (listed as Sildenafil), the “stable adhesion of PKG-expressing 123 cells (123PKG) to vWF under flow” value is on record as “significantly increased” and the “stable adhesion of vector-transfected 123 cells to vWF under flow” value is listed as “significantly increased”. Besides, in series [1] (setting [7]), the “stable adhesion of 1b9 cells (GPIb-IX alone) under flow” value was “no effect” and the “stable adhesion of 2b3a cells (integrin αIIbβ3 alone) under flow” value is “no effect”. Also, the “platelet aggregation together with a subthreshold concentration of ristocetin” value with platelets [2] was “induces platelet aggregation”. Moreover, the “platelet aggregation together with a subthreshold concentration of thrombin” value with platelets [3] is listed as “induces platelet aggregation”. In addition, the “platelet aggregation in vitro” value in the series with platelets [4] (sildenafil, not shown) is on record as “did not inhibit”. Also, the “platelet activation by sildenafil by itself” value with platelets [4] (without platelet agonist) was “not sufficient to cause platelet activation”. Further, the “platelet activation in vitro, sildenafil alone” value in the series with platelets [5] is listed as “did not inhibit; also recorded: does not inhibit”. For the same compound, the “thrombotic events (myocardial infarction and cerebral thrombosis) in some patients” value in series [6] is reported as “associated with severe thrombotic events”.

Source of the values: patent US20040087539A1, “Method of treating conditions related to platelet activity” (priority 2003, published 2004).
